Our source for the Ki values is ChEMBL document CHEMBL1148021, “(Arylpiperazinyl)cyclohexylsufonamides: discovery of alpha(1a/1d)-selective adrenergic receptor antagonists for the treatment of Benign Prostatic Hyperplasia/Lower Urinary Tract Symptoms (BPH/LUTS)” (Bioorg Med Chem Lett, 2007).

The target of one assay is D(2) dopamine receptor (Homo sapiens, UniProt P14416). Briefly: Binding affinity to human dopamine D2 receptor.
In assay [1] the target is T1, Alpha-1B adrenergic receptor (Homo sapiens, UniProt P35368).
T1 sequence (P35368 whole entry): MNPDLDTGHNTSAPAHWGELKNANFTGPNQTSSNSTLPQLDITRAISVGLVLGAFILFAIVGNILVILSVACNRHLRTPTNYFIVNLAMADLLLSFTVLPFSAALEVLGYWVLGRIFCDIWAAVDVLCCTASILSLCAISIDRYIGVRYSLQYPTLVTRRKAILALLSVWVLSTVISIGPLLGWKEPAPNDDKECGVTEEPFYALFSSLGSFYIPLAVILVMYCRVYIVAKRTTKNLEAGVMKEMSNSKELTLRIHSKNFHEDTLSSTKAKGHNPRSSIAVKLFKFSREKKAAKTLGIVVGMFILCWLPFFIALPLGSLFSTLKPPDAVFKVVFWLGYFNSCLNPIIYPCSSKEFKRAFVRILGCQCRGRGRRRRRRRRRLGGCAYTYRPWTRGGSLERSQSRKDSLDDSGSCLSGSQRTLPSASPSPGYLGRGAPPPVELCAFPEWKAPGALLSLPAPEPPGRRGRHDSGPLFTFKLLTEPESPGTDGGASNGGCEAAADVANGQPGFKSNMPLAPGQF
Description: Binding affinity to human cloned adrenergic alpha-1B receptor.

Assay [2] addresses T2, Alpha-1D adrenergic receptor (Homo sapiens, UniProt P25100).
T2 sequence (P25100 whole entry): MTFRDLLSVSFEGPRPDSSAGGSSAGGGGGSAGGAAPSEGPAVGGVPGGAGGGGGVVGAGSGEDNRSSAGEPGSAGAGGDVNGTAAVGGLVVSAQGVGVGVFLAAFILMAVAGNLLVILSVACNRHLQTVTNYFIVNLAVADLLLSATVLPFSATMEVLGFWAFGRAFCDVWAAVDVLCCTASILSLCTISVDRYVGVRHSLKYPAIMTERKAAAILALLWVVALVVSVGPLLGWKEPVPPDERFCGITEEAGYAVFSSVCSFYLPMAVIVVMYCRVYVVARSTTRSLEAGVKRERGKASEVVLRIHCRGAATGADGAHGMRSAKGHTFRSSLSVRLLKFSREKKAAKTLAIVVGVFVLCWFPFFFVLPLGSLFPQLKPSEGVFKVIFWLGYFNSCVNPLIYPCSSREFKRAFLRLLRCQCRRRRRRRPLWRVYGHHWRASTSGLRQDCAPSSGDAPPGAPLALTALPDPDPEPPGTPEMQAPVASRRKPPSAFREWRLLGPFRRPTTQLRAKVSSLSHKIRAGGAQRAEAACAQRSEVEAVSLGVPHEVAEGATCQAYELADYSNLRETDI
Briefly: Binding affinity to human cloned adrenergic Alpha-1D receptor.

Assay [3] concerns the target T3, Alpha-1A adrenergic receptor (Homo sapiens, UniProt P35348).
T3 sequence (P35348 whole entry): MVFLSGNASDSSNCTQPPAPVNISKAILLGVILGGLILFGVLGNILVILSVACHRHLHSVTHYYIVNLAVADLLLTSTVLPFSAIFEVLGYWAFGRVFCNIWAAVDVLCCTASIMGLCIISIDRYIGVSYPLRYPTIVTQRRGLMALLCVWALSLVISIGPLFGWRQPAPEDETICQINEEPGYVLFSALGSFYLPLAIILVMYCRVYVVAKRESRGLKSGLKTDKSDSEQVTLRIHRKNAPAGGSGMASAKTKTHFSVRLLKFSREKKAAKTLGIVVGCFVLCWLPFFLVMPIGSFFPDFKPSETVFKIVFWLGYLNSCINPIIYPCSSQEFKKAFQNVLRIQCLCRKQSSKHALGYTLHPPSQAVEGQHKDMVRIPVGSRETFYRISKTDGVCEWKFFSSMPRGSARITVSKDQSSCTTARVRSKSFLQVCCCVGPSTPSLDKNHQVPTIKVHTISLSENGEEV
Briefly: Binding affinity to human cloned adrenergic alpha-1A receptor.

Chain of D(2) dopamine receptor (P14416 whole entry): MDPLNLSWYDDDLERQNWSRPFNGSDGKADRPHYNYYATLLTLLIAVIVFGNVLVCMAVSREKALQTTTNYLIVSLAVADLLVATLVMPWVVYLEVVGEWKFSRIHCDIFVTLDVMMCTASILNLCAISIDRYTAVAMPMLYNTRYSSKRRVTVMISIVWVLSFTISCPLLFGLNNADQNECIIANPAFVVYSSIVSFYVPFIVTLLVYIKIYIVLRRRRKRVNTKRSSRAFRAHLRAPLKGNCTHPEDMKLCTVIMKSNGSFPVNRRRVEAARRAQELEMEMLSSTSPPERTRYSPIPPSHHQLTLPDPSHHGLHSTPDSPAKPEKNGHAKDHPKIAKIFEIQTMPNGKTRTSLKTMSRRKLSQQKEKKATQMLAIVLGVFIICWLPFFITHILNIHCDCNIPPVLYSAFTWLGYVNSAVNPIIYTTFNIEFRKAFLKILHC

Consider `CC(C)Oc1ccccc1N1CCN([C@H]2CC[C@@H](NS(=O)(=O)c3cccc(Cl)c3F)CC2)CC1`, for which the inhibition constant Ki stood at 198 nM on D(2) dopamine receptor, 120 nM in assay [1] and 6.2 nM in assay [2].
Turning to `COc1ccc(S(=O)(=O)N[C@H]2CC[C@@H](N3CCN(c4ccccc4OCC4CC4)CC3)CC2)cc1OC`, the inhibition constant Ki on D(2) dopamine receptor was found to be 123 nM; in assay [1] it was 364 nM; in assay [3], 189 nM; in assay [2] it was 64 nM.
For `COc1ccc(Cl)cc1S(=O)(=O)N[C@H]1CC[C@@H](N2CCN(c3ccccc3OCC3CC3)CC2)CC1`, in that order: 588 nM, 601 nM, 19 nM and 48 nM.
With `O=S(=O)(N[C@H]1CC[C@@H](N2CCN(c3ccccc3OCC3CC3)CC2)CC1)c1cc(Cl)ccc1F`, the Ki on D(2) dopamine receptor worked out at 425 nM; in assay [1] it was 952 nM; in assay [3], 36 nM; in assay [2], 44 nM.
In the case of `COc1ccc(OC)c(S(=O)(=O)N[C@H]2CC[C@@H](N3CCN(c4ccccc4OC(C)C)CC3)CC2)c1`, the Ki on D(2) dopamine receptor was determined as 81 nM; in assay [1], 153 nM; in assay [2], 5.1 nM.
Consider `COc1ccc(C)cc1S(=O)(=O)N[C@H]1CC[C@@H](N2CCN(c3ccccc3OC(C)C)CC2)CC1`, for which the inhibitory constant (Ki) on D(2) dopamine receptor is 110 nM; in assay [1], 162 nM; in assay [3], 18 nM; in assay [2], 7 nM.
For `CC(C)Oc1ccccc1N1CCN([C@H]2CC[C@@H](NS(=O)(=O)c3cc(Cl)ccc3F)CC2)CC1`, in that order: 356 nM, 1860 nM, 45 nM and 15 nM.
Take `COc1ccc(Cl)cc1S(=O)(=O)N[C@H]1CC[C@@H](N2CCN(c3ccccc3OC(C)C)CC2)CC1` (stereo in doubt; form 2): the Ki at D(2) dopamine receptor was 259 nM; in assay [1], 399 nM; in assay [3] it was 11 nM.
For `COc1ccc(S(=O)(=O)N[C@H]2CC[C@@H](N3CCN(c4ccccc4OC(C)C)CC3)CC2)cc1OC` (stereo in doubt; form 2), the Ki at D(2) dopamine receptor stood at 810 nM; in assay [1] it was 112 nM; in assay [2], 19 nM.
Turning to `CCOc1ccccc1OCCN[C@H](C)Cc1ccc(OC)c(S(N)(=O)=O)c1` [TAMSULOSIN], the results for the inhibitory constant (Ki) in assay [1] and in assay [2] were 2 nM and 0.2 nM, respectively.

Usually Ki stands for a measure of affinity in units of concentration, obtained from inhibition or displacement. A low value points to a stronger hold on the target.
